Test system: MV-4-11 cells
Assay: Gene expression microarray analysis (Affymetrix PrimeView) and GSEA
Assay type: cell-based, human
Design: RFU PODN (11730768_x_at) / Fold change /veh PODN (11730768_x_at) / RFU LINC00158 (11744669_a_at) / Fold change /veh LINC00158 (11744669_a_at) / RFU DUSP10 (11751237_a_at) / Fold change /veh DUSP10 (11751237_a_at) / RFU ID3 (11757404_x_at) / Fold change /veh ID3 (11757404_x_at) / RFU PLEKHG5 (11737974_s_at) / Fold change /veh PLEKHG5 (11737974_s_at) / RFU LRRC4B (11730491_at) / Fold change /veh LRRC4B (11730491_at) / RFU GIMAP4 (11747438_a_at) / Fold change /veh GIMAP4 (11747438_a_at) / RFU KRT8 (11758183_x_at) / Fold change /veh KRT8 (11758183_x_at) / RFU CNN1 (11734310_a_at) / Fold change /veh CNN1 (11734310_a_at) / RFU VPS37D (11726825_at) / Fold change /veh VPS37D (11726825_at) / RFU C10orf10 (11716522_x_at) / Fold change /veh C10orf10 (11716522_x_at) / RFU KIR2DL2 /// KIR2DL4 /// KIR2DL5A /// KIR2DL5B /// KIR2DS1 /// KIR2DS2 /// KIR2DS3 /// KIR2DS4 /// KIR3DL3 /// KIR3DL3 /// KIR3DS1 (11738374_at) / Fold change /veh KIR2DL2 /// KIR2DL4 /// KIR2DL5A /// KIR2DL5B /// KIR2DS1 /// KIR2DS2 /// KIR2DS3 /// KIR2DS4 /// KIR3DL3 /// KIR3DL3 /// KIR3DS1 (11738374_at) / RFU C1QL1 (11718748_at) / Fold change /veh C1QL1 (11718748_at) / RFU TMPRSS4 (11747572_a_at) / Fold change /veh TMPRSS4 (11747572_a_at) / RFU HAMP (11756126_x_at) / Fold change /veh HAMP (11756126_x_at) / RFU RNFT2 (11725882_a_at) / Fold change /veh RNFT2 (11725882_a_at) / RFU NR4A2 (11747474_a_at) / Fold change /veh NR4A2 (11747474_a_at) / RFU ABCC12 (11746883_a_at) / Fold change /veh ABCC12 (11746883_a_at) / RFU TMEM136 (11760407_x_at) / Fold change /veh TMEM136 (11760407_x_at) / RFU CLDN22 /// WWC2 (11732394_at) / Fold change /veh CLDN22 /// WWC2 (11732394_at) / RFU HLA-DPB1 (11760878_x_at) / Fold change /veh HLA-DPB1 (11760878_x_at) / RFU SPINT1 (11716480_a_at) / Fold change /veh SPINT1 (11716480_a_at) / RFU GAP43 (11754022_s_at) / Fold change /veh GAP43 (11754022_s_at) / RFU A4GNT (11735810_at) / Fold change /veh A4GNT (11735810_at) / RFU PRB3 (11715151_x_at) / Fold change /veh PRB3 (11715151_x_at) / RFU TUBB4B (11761932_at) / Fold change /veh TUBB4B (11761932_at) / RFU CAPN14 (11732068_a_at) / Fold change /veh CAPN14 (11732068_a_at) / RFU TMCC2 (11721928_a_at) / Fold change /veh TMCC2 (11721928_a_at) / RFU IRGQ (11745062_a_at) / Fold change /veh IRGQ (11745062_a_at) / RFU FAM174B (11720279_a_at) / Fold change /veh FAM174B (11720279_a_at) / RFU TMPRSS4 (11748680_a_at) / Fold change /veh TMPRSS4 (11748680_a_at) / RFU FAM212B (11763350_a_at) / Fold change /veh FAM212B (11763350_a_at) / RFU PLEKHG5 (11743358_a_at) / Fold change /veh PLEKHG5 (11743358_a_at) / RFU ZSCAN30 (11745921_a_at) / Fold change /veh ZSCAN30 (11745921_a_at) / RFU CMKLR1 (11741424_a_at) / Fold change /veh CMKLR1 (11741424_a_at) / RFU LOC101060620 /// MAPK8IP1 (11723275_at) / Fold change /veh LOC101060620 /// MAPK8IP1 (11723275_at) / RFU SPTSSB (11747773_x_at) / Fold change /veh SPTSSB (11747773_x_at) / RFU PRSS12 (11739890_at) / Fold change /veh PRSS12 (11739890_at) / RFU BIN1 (11741810_x_at) / Fold change /veh BIN1 (11741810_x_at) / RFU WNT11 (11732464_a_at) / Fold change /veh WNT11 (11732464_a_at) / RFU C10orf10 (11716521_a_at) / Fold change /veh C10orf10 (11716521_a_at) / RFU C5orf56 (11738089_at) / Fold change /veh C5orf56 (11738089_at) / RFU CYB561 (11721691_x_at) / Fold change /veh CYB561 (11721691_x_at) / RFU ANKRD19P (11752326_a_at) / Fold change /veh ANKRD19P (11752326_a_at) / RFU OR2T12 /// OR2T33 /// OR2T8 (11738714_s_at) / Fold change /veh OR2T12 /// OR2T33 /// OR2T8 (11738714_s_at) / RFU VCAN (11748164_a_at) / Fold change /veh VCAN (11748164_a_at) / RFU JSRP1 (11732532_at) / Fold change /veh JSRP1 (11732532_at) / RFU KRTAP10-11 (11738290_x_at) / Fold change /veh KRTAP10-11 (11738290_x_at) / RFU MYO3A (11730013_a_at) / Fold change /veh MYO3A (11730013_a_at) / RFU EBF3 (11725865_a_at) / Fold change /veh EBF3 (11725865_a_at) / RFU CAMK2N1 (11719241_x_at) / Fold change /veh CAMK2N1 (11719241_x_at) / RFU C5orf56 (11738088_a_at) / Fold change /veh C5orf56 (11738088_a_at) / RFU OLFML3 (11715873_a_at) / Fold change /veh OLFML3 (11715873_a_at) / RFU LOC100653217 /// NTM (11731650_a_at) / Fold change /veh LOC100653217 /// NTM (11731650_a_at) / RFU MAPK11 (11762145_a_at) / Fold change /veh MAPK11 (11762145_a_at) / RFU FIZ1 (11724087_x_at) / Fold change /veh FIZ1 (11724087_x_at) / RFU OASL (11726364_x_at) / Fold change /veh OASL (11726364_x_at) / RFU SOX15 (11748057_x_at) / Fold change /veh SOX15 (11748057_x_at) / RFU CD79A (11719716_a_at) / Fold change /veh CD79A (11719716_a_at) / RFU HIST1H1D (11736915_at) / Fold change /veh HIST1H1D (11736915_at) / RFU CASKIN2 (11723855_a_at) / Fold change /veh CASKIN2 (11723855_a_at) / RFU LOC730098 (11760151_x_at) / Fold change /veh LOC730098 (11760151_x_at) / RFU OR4N2 (11742367_at) / Fold change /veh OR4N2 (11742367_at) / RFU PRRT2 (11749266_a_at) / Fold change /veh PRRT2 (11749266_a_at) / RFU SNX32 (11753110_a_at) / Fold change /veh SNX32 (11753110_a_at) / RFU CDHR5 (11726645_a_at) / Fold change /veh CDHR5 (11726645_a_at) / RFU RCAN1 (11760418_a_at) / Fold change /veh RCAN1 (11760418_a_at) / RFU FAM167A (11723789_a_at) / Fold change /veh FAM167A (11723789_a_at) / RFU FAM26E (11764081_at) / Fold change /veh FAM26E (11764081_at) / RFU ISYNA1 (11749810_s_at) / Fold change /veh ISYNA1 (11749810_s_at) / RFU ACY1 (11761880_at) / Fold change /veh ACY1 (11761880_at) / RFU 11764098_at / Fold change /veh 11764098_at / RFU SAMD14 (11745864_x_at) / Fold change /veh SAMD14 (11745864_x_at) / RFU NPB (11741838_a_at) / Fold change /veh NPB (11741838_a_at) / RFU TMPRSS6 (11731388_a_at) / Fold change /veh TMPRSS6 (11731388_a_at) / RFU KRTAP10-2 (11738614_at) / Fold change /veh KRTAP10-2 (11738614_at) / RFU ARHGAP8 /// PRR5-ARHGAP8 (11727945_x_at) / Fold change /veh ARHGAP8 /// PRR5-ARHGAP8 (11727945_x_at) / RFU KRTAP5-7 /// NADSYN1 (11734609_at) / Fold change /veh KRTAP5-7 /// NADSYN1 (11734609_at) / RFU RASL12 (11751679_a_at) / Fold change /veh RASL12 (11751679_a_at) / RFU CDKN2B (11736163_a_at) / Fold change /veh CDKN2B (11736163_a_at) / RFU PRF1 (11729649_at) / Fold change /veh PRF1 (11729649_at) / RFU, ZNF638 /// ZNF638-IT1 / Fold change vs veh, ZNF638 /// ZNF638-IT1 / RFU, PANK3 / Fold change vs veh, PANK3 / RFU, SH3YL1 / Fold change vs veh, SH3YL1 / RFU, ZEB2 / Fold change vs veh, ZEB2 / RFU, NRIP1 / Fold change vs veh, NRIP1 / RFU, PTTG1IP / Fold change vs veh, PTTG1IP / RFU, CAPN2 / Fold change vs veh, CAPN2 / RFU, MED14 / Fold change vs veh, MED14 / RFU, SNORA58 / Fold change vs veh, SNORA58 / RFU, C1orf63 / Fold change vs veh, C1orf63 / RFU, LRRFIP1 / Fold change vs veh, LRRFIP1 / RFU, NDUFAF7 / Fold change vs veh, NDUFAF7 / RFU, SLC12A2 / Fold change vs veh, SLC12A2 / RFU, IBTK / Fold change vs veh, IBTK / RFU, ESF1 / Fold change vs veh, ESF1 / Fold change vs veh, TMEM50B / RFU, TAOK1 / Fold change vs veh, TAOK1 / RFU, ACBD3 / Fold change vs veh, ACBD3 / RFU, TMA16 / Fold change vs veh, TMA16 / RFU, RWDD3 / Fold change vs veh, RWDD3 / RFU, BCAT1 / Fold change vs veh, BCAT1 / RFU, EDEM3 / Fold change vs veh, EDEM3 / RFU, TMEM33 / Fold change vs veh, TMEM33 / RFU, WDR75 / Fold change vs veh, WDR75 / RFU, AHCTF1 / Fold change vs veh, AHCTF1 / RFU, TFRC / Fold change vs veh, TFRC / RFU, ZDHHC17 / Fold change vs veh, ZDHHC17 / RFU, NOM1 / Fold change vs veh, NOM1 / RFU, ARL8B / Fold change vs veh, ARL8B / RFU, ZBTB11 / Fold change vs veh, ZBTB11 / RFU, TAMM41 / Fold change vs veh, TAMM41 / RFU, KIAA1704 /// LOC100996395 / Fold change vs veh, KIAA1704 /// LOC100996395 / RFU, ING1 / Fold change vs veh, ING1 / RFU, TRMT61B / Fold change vs veh, TRMT61B / RFU, FUBP3 / Fold change vs veh, FUBP3 / RFU, TP53 / Fold change vs veh, TP53 / RFU, TNKS2 / Fold change vs veh, TNKS2 / RFU, ZFP14 / Fold change vs veh, ZFP14 / RFU, ACTR2 / Fold change vs veh, ACTR2 / RFU, PPP3R1 / Fold change vs veh, PPP3R1 / RFU, PIK3R1 / Fold change vs veh, PIK3R1 / RFU, HNRNPA1 / Fold change vs veh, HNRNPA1 / RFU, RNF170 / Fold change vs veh, RNF170 / RFU, ZNF28 / Fold change vs veh, ZNF28 / RFU, RNGTT / Fold change vs veh, RNGTT / RFU, OGT / Fold change vs veh, OGT / RFU, BRD1 / Fold change vs veh, BRD1 / RFU, MARS / Fold change vs veh, MARS / RFU, ZNF655 / Fold change vs veh, ZNF655 / RFU, FAHD1 / Fold change vs veh, FAHD1 / RFU, BDP1 / Fold change vs veh, BDP1 / RFU, LRRCC1 / Fold change vs veh, LRRCC1 / RFU, ARID1A / Fold change vs veh, ARID1A / RFU, ZNF146 / Fold change vs veh, ZNF146 / RFU, ZNF330 / Fold change vs veh, ZNF330 / RFU, GPN3 / Fold change vs veh, GPN3 / RFU, C9orf123 / Fold change vs veh, C9orf123 / RFU, N4BP2L2 / Fold change vs veh, N4BP2L2 / RFU, ARFIP1 / Fold change vs veh, ARFIP1 / RFU, FAM179B / Fold change vs veh, FAM179B / RFU, BCL10 / Fold change vs veh, BCL10 / RFU, UHRF1BP1L / Fold change vs veh, UHRF1BP1L / RFU, BET1 / Fold change vs veh, BET1 / RFU, CNOT2 / Fold change vs veh, CNOT2 / RFU, ZNF268 / Fold change vs veh, ZNF268 / Fold change vs veh, ZNF507 / RFU, DGCR2 / Fold change vs veh, DGCR2 / RFU, WDSUB1 / Fold change vs veh, WDSUB1 / Fold change vs veh, HSP90B1 /// MIR3652 / RFU, ADSS / Fold change vs veh, ADSS / RFU, GK / Fold change vs veh, GK / RFU, ZNF148 / Fold change vs veh, ZNF148 / RFU, TAF9 / Fold change vs veh, TAF9 / RFU, SLC1A5 / Fold change vs veh, SLC1A5 / RFU, SLMO2 / Fold change vs veh, SLMO2 / RFU, ABCC4 / Fold change vs veh, ABCC4 / RFU, LOC101060439 /// RAP1B / Fold change vs veh, LOC101060439 /// RAP1B / RFU, RFX7 / Fold change vs veh, RFX7 / RFU, GTPBP10 / Fold change vs veh, GTPBP10 / RFU, CNEP1R1 / Fold change vs veh, CNEP1R1 / RFU, BIVM-ERCC5 /// ERCC5 / Fold change vs veh, BIVM-ERCC5 /// ERCC5 / RFU, ILF3 / Fold change vs veh, ILF3 / RFU 11762660_at / Fold change /veh 11762660_at / RFU VCAN (11757783_s_at) / Fold change /veh VCAN (11757783_s_at) / RFU DDX43 (11728927_at) / Fold change /veh DDX43 (11728927_at) / RFU KRT8 (11758188_x_at) / Fold change /veh KRT8 (11758188_x_at) / RFU NKD1 (11759106_at) / Fold change /veh NKD1 (11759106_at) / RFU SRD5A1 (11742802_a_at) / Fold change /veh SRD5A1 (11742802_a_at) / RFU TPSAB1 /// TPSB2 (11721975_s_at) / Fold change /veh TPSAB1 /// TPSB2 (11721975_s_at) / RFU GSTM3 (11746129_a_at) / Fold change /veh GSTM3 (11746129_a_at) / RFU IL23R (11737362_x_at) / Fold change /veh IL23R (11737362_x_at) / RFU TMEM51 (11727254_a_at) / Fold change /veh TMEM51 (11727254_a_at) / RFU PIWIL2 (11732686_x_at) / Fold change /veh PIWIL2 (11732686_x_at) / RFU ORM1 (11744905_x_at) / Fold change /veh ORM1 (11744905_x_at) / RFU CCDC152 (11743942_at) / Fold change /veh CCDC152 (11743942_at) / RFU ECM1 (11717891_a_at) / Fold change /veh ECM1 (11717891_a_at) / RFU IL23R (11748794_a_at) / Fold change /veh IL23R (11748794_a_at) / RFU TNFAIP8L3 (11732012_x_at) / Fold change /veh TNFAIP8L3 (11732012_x_at) / RFU MBOAT4 (11741988_at) / Fold change /veh MBOAT4 (11741988_at) / RFU 11764193_at / Fold change /veh 11764193_at / RFU TMEM53 (11763286_at) / Fold change /veh TMEM53 (11763286_at) / RFU MAGEB2 (11727129_at) / Fold change /veh MAGEB2 (11727129_at) / RFU TMEM200A (11744735_a_at) / Fold change /veh TMEM200A (11744735_a_at) / RFU CCDC152 (11751479_a_at) / Fold change /veh CCDC152 (11751479_a_at) / RFU FAM211A (11726209_a_at) / Fold change /veh FAM211A (11726209_a_at) / RFU RGS16 (11746705_a_at) / Fold change /veh RGS16 (11746705_a_at) / RFU VCAN (11755009_s_at) / Fold change /veh VCAN (11755009_s_at) / RFU RHOB (11743442_s_at) / Fold change /veh RHOB (11743442_s_at) / RFU RGS16 (11720943_a_at) / Fold change /veh RGS16 (11720943_a_at) / RFU RGS16 (11720944_at) / Fold change /veh RGS16 (11720944_at) / RFU, VPS4B / Fold change vs veh, VPS4B / RFU, CREB1 / Fold change vs veh, CREB1 / RFU, DNAJC13 / Fold change vs veh, DNAJC13 / RFU, GNAQ / Fold change vs veh, GNAQ / RFU, CDK5R1 / Fold change vs veh, CDK5R1 / RFU, ZRANB3 / Fold change vs veh, ZRANB3 / RFU, CUL4A / Fold change vs veh, CUL4A / RFU, CCNY / Fold change vs veh, CCNY / RFU, UFL1 / Fold change vs veh, UFL1 / RFU, COG3 / Fold change vs veh, COG3 / RFU, DIAPH2 / Fold change vs veh, DIAPH2 / RFU, SKA2 / Fold change vs veh, SKA2 / RFU, AFF3 / Fold change vs veh, AFF3 / RFU, LMF1 / Fold change vs veh, LMF1 / RFU, IPO11 / Fold change vs veh, IPO11 / RFU, DFFB / Fold change vs veh, DFFB / RFU, FOXP1 / Fold change vs veh, FOXP1 / RFU, CARD8 / Fold change vs veh, CARD8 / RFU, STRN3 / Fold change vs veh, STRN3 / RFU, ADK / Fold change vs veh, ADK / RFU, RASSF2 / Fold change vs veh, RASSF2 / RFU, WIPF1 / Fold change vs veh, WIPF1 / RFU, LARP1B / Fold change vs veh, LARP1B / RFU, RASA1 / Fold change vs veh, RASA1 / RFU, RB1 / Fold change vs veh, RB1 / RFU, PPFIA1 / Fold change vs veh, PPFIA1 / RFU, MAT2A / Fold change vs veh, MAT2A / RFU, CCT5 / Fold change vs veh, CCT5 / RFU, WDR92 / Fold change vs veh, WDR92 / RFU, CUX1 / Fold change vs veh, CUX1 / RFU, TTC7A / Fold change vs veh, TTC7A / RFU, TMEM135 / Fold change vs veh, TMEM135 / RFU, DEPTOR / Fold change vs veh, DEPTOR / RFU, CPM / Fold change vs veh, CPM / RFU, DNAJB6 / Fold change vs veh, DNAJB6 / RFU, CACNA2D3 / Fold change vs veh, CACNA2D3 / RFU, DTX4 / Fold change vs veh, DTX4 / RFU, TFCP2 / Fold change vs veh, TFCP2 / RFU, GMCL1 /// GMCL1P1 / Fold change vs veh, GMCL1 /// GMCL1P1 / RFU, AEBP2 / Fold change vs veh, AEBP2 / RFU, SNHG1 /// SNORD22 /// SNORD25 /// SNORD26 /// SNORD27 /// SNORD28 /// SNORD29 /// SNORD31 / Fold change vs veh, SNHG1 /// SNORD22 /// SNORD25 /// SNORD26 /// SNORD27 /// SNORD28 /// SNORD29 /// SNORD31 / Fold change (Aza/veh), C12orf56 (ProbeSet 11735607_a_at) / Fold change (ACY-1035/veh), C12orf56 (ProbeSet 11735607_a_at) / Fold change (Aza/veh), FGFR1OP (ProbeSet 11751329_s_at) / Fold change (ACY-1035/veh), FGFR1OP (ProbeSet 11751329_s_at) / Fold change (Aza/veh), VPS36 (ProbeSet 11739960_a_at) / Fold change (ACY-1035/veh), VPS36 (ProbeSet 11739960_a_at) / RFU SYPL1 (11715823_x_at) / Fold change /veh SYPL1 (11715823_x_at) / RFU IGFBP7 (11715501_s_at) / Fold change /veh IGFBP7 (11715501_s_at) / RFU REEP3 (11722064_at) / Fold change /veh REEP3 (11722064_at) / RFU IGLL1 (11728026_x_at) / Fold change /veh IGLL1 (11728026_x_at): dose or concentration left out as unconfirmed
Conditions: MV-4-11 cells, 48 hours

Compound: Nc1ccc(-c2cccs2)cc1NC(=O)c1ccc2c(c1)cc(C1CC1)n2CCN1CCOCC1 [ACY-1035]
- RFU ANKRD19P (11752326_a_at): 5.89 RFU

Source: article PMC5218480 (PLoS ONE, 2017)
